In this data set the test system is neonatal human fibroblast cells. Briefly: Caspase detection in neonatal human fibroblast cells in FM, fluorescence spectroscopy. Type of data set: cell-based. The following applies: fibroblasts in FM. An excerpt:
The procedure for caspase detection in neonatal human fibroblast cells in fibroblast growth medium FM* treated with BAC-3 using fluorescence spectroscopy.
Note: CaspaTag Fluorescein Caspase Activity Kit (Intergen Company) was used to detect active caspase enzymes with fluorescent spectroscopy. All solutions, except cell medium and PBS, were included with the kit.
12 vials of neonatal human fibroblasts, NHF97-001 passage #3 (prepared as described in section 2.1.a), were retrieved from a liquid N2 chamber. Closed vials were quickly defrosted in a small amount of 37° C., 75% ethanol. […]
Di-rhamnolipid BAC-3 was weighed on the precision balance (Mettler AC100) and dissolved in FM medium to make an aqueous 1 mg/ml di-rhamnolipid BAC-3 stock solution. […] The remaining 9 plates were used as controls: 3 plates for positive apoptosis control (apoptosis induction by UVB+antibody), 3 plates for BAC-3 untreated control and 3 plates for fluorescence control (FAM-VAD-FMK unlabelled cells). […]
On day 6, treatment with BAC-3 was completed and cells were trypsinized and collected into 50 ml centrifuge tubes. Cells were counted using a hemacytometer and a trypan blue exclusion test and densities were adjusted to 1.0×10^6 cells per ml of FM medium. […]

Structures are written as SMILES.

With `CCCCCCCC(CC(=O)O)OC(=O)CC(CCCCCCC)OC1OC(C)C(O)C(O)C1OC1OC(C)C(O)C(O)C1O` [BAC-3, (α-L-rhamnopyranosyl-(1,2)-α-L-rhamnopyranosyl)-3-hyroxydecanoyl-3-hydroxydecanoic acid], the “optimal concentration for inducing apoptosis (caspase activity peak)” value (6 days, tested 100, 50, 10 and 1 μg/ml) came to 50 µg/mL. Further, the “mechanism of cell death at higher concentrations” value (higher concentrations of BAC-3 (detergent effect)) is reported as “cell necrosis”.
